Read-outs that look alike come from different tables or passages of the source.
Experiments:
H82 cells = assay: cells; assay type: cell-based; conditions: Homo sapiens
Outline: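 H82 cells in RPMI1640 + 10% FBS exposed to compound (0.1% DMSO final) for 6 days at 37 °C, 5% CO2. Viability read by CellTiter-Glo ATP luminescence, normalised to DMSO and medium controls; IC50 from nonlinear regression of the dose–survival curve.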

AURKA = target: T1, AURKA (Homo sapiens, UniProt O14965); assay type: cell-based
T1 construct: endogenous in cells; host or cells: Jurkat cells
T1 sequence (O14965 1-403): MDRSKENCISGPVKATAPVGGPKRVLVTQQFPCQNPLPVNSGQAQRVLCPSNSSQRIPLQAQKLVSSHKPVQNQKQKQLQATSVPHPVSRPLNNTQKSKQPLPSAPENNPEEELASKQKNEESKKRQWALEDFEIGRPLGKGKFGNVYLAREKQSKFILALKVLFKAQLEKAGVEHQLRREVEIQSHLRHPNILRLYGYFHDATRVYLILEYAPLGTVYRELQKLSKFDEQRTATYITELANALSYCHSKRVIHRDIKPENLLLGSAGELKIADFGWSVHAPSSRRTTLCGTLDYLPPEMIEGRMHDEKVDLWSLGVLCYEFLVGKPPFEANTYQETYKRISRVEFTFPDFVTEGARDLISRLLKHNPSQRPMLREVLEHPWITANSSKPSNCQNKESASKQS
Outline: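 Jurkat cells seeded at 1×10^6 cells/500 µL and treated with compound; lysates run on SDS-PAGE, blotted to nitrocellulose and probed overnight at 4°C for AURKA. Chemiluminescent or fluorescent band intensity fitted to a curve to give DC50 for protein degradation.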

[1] = NCI-H82, H82 cells, 4000 cells/well, CellTiter-Glo, read-out: IC50 in H82 Cells
[2] = 100 nM compound, Jurkat cells, 24 h, Table 2
[3] = 1 µM compound, Jurkat cells, 24 h, Table 2
[4] = NCI-H82, read-out: IC50 in H82 Cells

Row | Structure (SMILES) | IC50 (H82 cells; [1]) [µM] | Percentage of AURKA Degradation Induced by 100 nM Compound in Jurkat Cells (AURKA; [2]) | Percentage of AURKA Degradation Induced by 1 µM Compound in Jurkat Cells (AURKA; [3]) | IC50 (H82 cells; [4]) [µM] | Percentage of AURKA Degradation Induced by 100 nM Compound in Jurkat Cells (AURKA) | Percentage of AURKA Degradation Induced by 1 µM Compound in Jurkat Cells (AURKA)
1 | CP(C)(=O)c1ccc2c(c1)C(c1c(F)cccc1F)=NCc1cnc(Nc3ccc(N4CCN(C5CCN(c6ccc(N7CCC(=O)NC7=O)cn6)CC5)CC4=O)cc3)nc1-2 [Compound A268] | 1 to 10 | +++ (Degradation > 70%) | +++ (Degradation > 70%) | – | – | –
2 | CP(C)(=O)c1ccc2c(c1)C(c1c(F)cccc1F)=NCc1cnc(Nc3ccc(N4CC(CN5CCN(c6ccc(N7CCC(=O)NC7=O)cn6)CC5)C4)cc3)nc1-2 [Compound A269] | 1 to 10 | +++ (Degradation > 70%) | +++ (Degradation > 70%) | – | – | –
3 | O=C1CCN(c2ccc(N3CCC(C(=O)N4CCN(C56CC(Nc7ncc8c(n7)-c7ccc(Cl)cc7C(c7c(F)cccc7F)=NC8)(C5)C6)C(=O)C4)CC3)nc2)C(=O)N1 [Compound A270] | < 1 | +++ (Degradation > 70%) | +++ (Degradation > 70%) | – | – | –
4 | O=C1CCN(c2ccc(N3CCC(C4CCN(c5ccc(Nc6ncc7c(n6)-c6ccc(Cl)cc6C(c6c(F)cccc6F)=NC7)cc5)CC4)CC3)nc2)C(=O)N1 [Compound A271] | < 1 | ++ (30% < Degradation ≤ 70%) | +++ (Degradation > 70%) | – | – | –
5 | O=C1CCN(c2ccc(N3CCC(F)(CN4CCN(C56CC(Nc7ncc8c(n7)-c7ccc(Cl)cc7C(c7c(F)cccc7F)=NC8)(C5)C6)C(=O)C4)CC3)nc2)C(=O)N1 [Compound A272] | – | – | – | < 1 | +++ (key: +: Degradation ≤ 30%; ++: 30% < Degradation ≤ 70%; +++: Degradation > 70%) | +++ (key: +: Degradation ≤ 30%; ++: 30% < Degradation ≤ 70%; +++: Degradation > 70%)
6 | O=C1CCN(c2ccc(N3CCC(C4CCN(C(=O)C56CC(Nc7ncc8c(n7)-c7ccc(Cl)cc7C(c7c(F)cccc7F)=NC8)(C5)C6)CC4)CC3)nc2)C(=O)N1 [Compound A273] | < 1 | +++ (Degradation > 70%) | +++ (Degradation > 70%) | – | – | –
7 | O=C1CCN(c2ccc(N3CC(C(=O)N4CCN(c5ccc(Nc6ncc7c(n6)-c6ccc(Cl)cc6C(c6c(F)cccc6F)=NC7)cc5)CC4)C3)nc2)C(=O)N1 [Compound A274] | < 1 | +++ (Degradation > 70%) | +++ (Degradation > 70%) | – | – | –
8 | O=C1CCN(c2ccc(N3CC(N4CCN(C(=O)C56CC(Nc7ncc8c(n7)-c7ccc(Cl)cc7C(c7c(F)cccc7F)=NC8)(C5)C6)CC4)C3)nc2)C(=O)N1 [Compound A275] | < 1 | +++ (Degradation > 70%) | +++ (Degradation > 70%) | – | – | –
9 | O=C1CCN(c2ccc(N3CC(N4CCN(Cc5ccc(Nc6ncc7c(n6)-c6ccc(Cl)cc6C(c6c(F)cccc6F)=NC7)cc5)CC4=O)C3)nc2)C(=O)N1 [Compound A276] | – | – | – | < 1 | ++ (key: +: Degradation ≤ 30%; ++: 30% < Degradation ≤ 70%; +++: Degradation > 70%) | ++ (key: +: Degradation ≤ 30%; ++: 30% < Degradation ≤ 70%; +++: Degradation > 70%)
10 | O=C1CCN(c2ccc(N3CCN(C(=O)C4CCN(c5ccc(Nc6ncc7c(n6)-c6ccc(Cl)cc6C(c6c(F)cccc6F)=NC7)cc5)CC4)CC3)nc2)C(=O)N1 [Compound A277] | < 1 | +++ (Degradation > 70%) | +++ (Degradation > 70%) | – | – | –
11 | O=C1CCN(c2ccc(N3CC(CN4CCN(C(=O)C56CC(Nc7ncc8c(n7)-c7ccc(Cl)cc7C(c7c(F)cccc7F)=NC8)(C5)C6)CC4)C3)nc2)C(=O)N1 [Compound A279] | < 1 | +++ (Degradation > 70%) | +++ (Degradation > 70%) | – | – | –
12 | O=C1CCN(c2ccc(N3CCC(C(=O)N4CCN(C56CC(Nc7ncc8c(n7)-c7ccc(Cl)cc7C(c7nccs7)=NC8)(C5)C6)C(=O)C4)CC3)nc2)C(=O)N1 [Compound A280] | < 1 | +++ (Degradation > 70%) | +++ (Degradation > 70%) | – | – | –
13 | O=C1CCN(c2ccc(N3CCN(CC4(O)CN(c5ccc(Nc6ncc7c(n6)-c6ccc(Cl)cc6C(c6c(F)cccc6F)=NC7)cc5)C4)CC3)nc2)C(=O)N1 [Compound A281] | < 1 | +++ (Degradation > 70%) | +++ (Degradation > 70%) | – | – | –
14 | O=C1CCN(c2ccc(N3CCC(N4CCN(c5ccc(Nc6ncc7c(n6)-c6ccc(Cl)cc6C(c6nccs6)=NC7)cc5)C(=O)C4)CC3)nc2)C(=O)N1 [Compound A282] | – | – | – | < 1 | +++ (key: +: Degradation ≤ 30%; ++: 30% < Degradation ≤ 70%; +++: Degradation > 70%) | +++ (key: +: Degradation ≤ 30%; ++: 30% < Degradation ≤ 70%; +++: Degradation > 70%)
15 | O=C1CCN(c2ccc(N3CCC(CN4CC(=O)N(C56CC(Nc7ncc8c(n7)-c7ccc(Cl)cc7C(c7c(F)cccc7F)=NC8)(C5)C6)C(=O)C4)CC3)nc2)C(=O)N1 [Compound A283] | < 1 | +++ (Degradation > 70%) | +++ (Degradation > 70%) | – | – | –
16 | O=C1CCN(c2ccc(N3CCN(C(=O)C4CCN(C56CC(Nc7ncc8c(n7)-c7ccc(Cl)cc7C(c7c(F)cccc7F)=NC8)(C5)C6)C(=O)C4)CC3)nc2)C(=O)N1 (stereo not drawn) [Compound A284] | < 1 | +++ (Degradation > 70%) | ++ (30% < Degradation ≤ 70%) | – | – | –
17 | O=C1CCN(c2ccc(N3CCOC(C(=O)N4CCN(c5ccc(Nc6ncc7c(n6)-c6ccc(Cl)cc6C(c6c(F)cccc6F)=NC7)cc5)CC4)C3)nc2)C(=O)N1 (stereo not drawn) [Compound A285] | < 1 | +++ (Degradation > 70%) | +++ (Degradation > 70%) | – | – | –
18 | O=C1CCN(c2cnc(N3CCN(CC4(F)CN(c5ccc(Nc6ncc7c(n6)-c6ccc(Cl)cc6C(c6c(F)cccc6F)=NC7)cc5)C4)CC3)nc2)C(=O)N1 [Compound A286] | < 1 | ++ (30% < Degradation ≤ 70%) | ++ (30% < Degradation ≤ 70%) | – | – | –
19 | CP(C)(=O)c1cc(N2CCC(=O)NC2=O)ccc1N1CCN(C(=O)C2CCN(c3ccc(Nc4ncc5c(n4)-c4ccc(Cl)cc4C(c4c(F)cccc4F)=NC5)cc3)CC2)CC1 [Compound A287] | < 1 | + (Degradation ≤ 30%) | + (Degradation ≤ 30%) | – | – | –
20 | CP(C)(=O)c1cc(N2CCN(C(=O)C3CCN(c4ccc(Nc5ncc6c(n5)-c5ccc(Cl)cc5C(c5c(F)cccc5F)=NC6)cc4)CC3)CC2)ccc1N1CCC(=O)NC1=O [Compound A288] | < 1 | + (Degradation ≤ 30%) | + (Degradation ≤ 30%) | – | – | –
21 | O=C1CCN(c2ccc(N3CCC(O)(CN4CCN(C56CC(Nc7ncc8c(n7)-c7ccc(Cl)cc7C(c7c(F)cccc7F)=NC8)(C5)C6)C(=O)C4)CC3)nc2)C(=O)N1 [Compound A290] | – | – | – | < 1 | ++ (key: +: Degradation ≤ 30%; ++: 30% < Degradation ≤ 70%; +++: Degradation > 70%) | +++ (key: +: Degradation ≤ 30%; ++: 30% < Degradation ≤ 70%; +++: Degradation > 70%)
22 | O=C1CCN(c2ccc(N3CCN(CC4(F)CN(c5ccc(Nc6ncc7c(n6)-c6ccc(Cl)cc6C(c6nccs6)=NC7)cc5)C4)CC3)nc2)C(=O)N1 [Compound A291] | < 1 | +++ (Degradation > 70%) | +++ (Degradation > 70%) | – | – | –
23 | O=C1CCN(c2ccc(N3CC(C(=O)N4CCN(c5ccc(Nc6ncc7c(n6)-c6ccc(Cl)cc6C(c6nccs6)=NC7)cc5)CC4)C3)nc2)C(=O)N1 [Compound A292] | < 1 | +++ (Degradation > 70%) | +++ (Degradation > 70%) | – | – | –
24 | O=C1CCN(c2ccc(N3CCC(C4CN(C(=O)C56CC(Nc7ncc8c(n7)-c7ccc(Cl)cc7C(c7c(F)cccc7F)=NC8)(C5)C6)C4)CC3)nc2)C(=O)N1 [Compound A293] | < 1 | +++ (Degradation > 70%) | +++ (Degradation > 70%) | – | – | –
